From ChEMBL document CHEMBL5550160, “Leveraging a rationally designed veliparib-based anilide eliciting anti-leukemic effects for the design of pH-responsive polymer nanoformulation” (Eur J Med Chem, 2024)
Activity calls are given as the source filed them. The rule behind the calls is not given here.

Legend:
A549 = assay: cells; type: functional, cell-based; settings: Homo sapiens
Description: Antiproliferative activity against human A549 cells assessed as inhibition of cell growth by MTT assay

MDA-MB-231 = assay: Antiproliferative activity against human MDA-MB-231 cells assessed as inhibition of cell growth by MTT assay; type: functional, cell-based
Histone deacetylase 2 [1] = target: T1, Histone deacetylase 2 (Homo sapiens, UniProt Q92769); assay: Inhibition of HDAC2 (unknown origin) assessed as residual activity at 1 x 10^-5M (reference value: 99.81%); settings: dose 1.0 10^-5M
T1 sequence (Q92769 whole entry, the tested form may be a part): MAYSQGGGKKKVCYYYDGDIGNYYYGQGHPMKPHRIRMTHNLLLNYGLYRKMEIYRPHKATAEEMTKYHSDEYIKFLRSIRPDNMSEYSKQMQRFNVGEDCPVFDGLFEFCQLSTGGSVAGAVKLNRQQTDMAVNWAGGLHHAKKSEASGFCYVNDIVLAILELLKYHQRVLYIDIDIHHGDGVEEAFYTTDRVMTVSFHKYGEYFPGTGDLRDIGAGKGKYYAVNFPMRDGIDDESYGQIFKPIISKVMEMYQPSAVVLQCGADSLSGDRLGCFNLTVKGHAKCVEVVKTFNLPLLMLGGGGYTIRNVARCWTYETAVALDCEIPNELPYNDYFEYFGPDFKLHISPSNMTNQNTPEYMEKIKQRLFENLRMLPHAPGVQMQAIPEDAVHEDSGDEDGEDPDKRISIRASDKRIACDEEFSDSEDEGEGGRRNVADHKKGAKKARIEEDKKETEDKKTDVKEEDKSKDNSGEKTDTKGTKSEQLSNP

Histone deacetylase 3 = Histone deacetylase 3 (Homo sapiens, UniProt O15379); assay: Inhibition of HDAC3 (unknown origin) using p53 residues 379 to 382 [RHKK(Ac)] as fluorogenic substrate assessed as residual activity at 1 x 10^-5M (reference value: 103.08%); settings: dose 1.0 10^-5M
Histone deacetylase 3, sequence (O15379 whole entry, the tested form may be a part): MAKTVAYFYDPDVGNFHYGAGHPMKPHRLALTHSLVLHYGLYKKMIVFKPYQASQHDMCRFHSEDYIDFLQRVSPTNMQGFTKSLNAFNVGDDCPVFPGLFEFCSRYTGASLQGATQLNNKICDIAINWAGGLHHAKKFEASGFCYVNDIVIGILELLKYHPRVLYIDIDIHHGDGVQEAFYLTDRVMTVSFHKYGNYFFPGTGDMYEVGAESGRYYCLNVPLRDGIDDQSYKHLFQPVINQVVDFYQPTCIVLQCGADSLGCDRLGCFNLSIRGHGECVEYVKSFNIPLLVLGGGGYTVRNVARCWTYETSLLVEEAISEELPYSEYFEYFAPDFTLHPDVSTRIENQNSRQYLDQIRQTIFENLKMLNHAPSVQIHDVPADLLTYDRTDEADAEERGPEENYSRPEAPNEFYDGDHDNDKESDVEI

[2] = target: T2, Histone deacetylase 7 (Homo sapiens) (UniProt Q8WUI4); assay: Inhibition of HDAC7 (unknown origin) assessed as residual activity at 1 x 10^-5M (reference value: 102.66%)
T2 sequence (whole entry): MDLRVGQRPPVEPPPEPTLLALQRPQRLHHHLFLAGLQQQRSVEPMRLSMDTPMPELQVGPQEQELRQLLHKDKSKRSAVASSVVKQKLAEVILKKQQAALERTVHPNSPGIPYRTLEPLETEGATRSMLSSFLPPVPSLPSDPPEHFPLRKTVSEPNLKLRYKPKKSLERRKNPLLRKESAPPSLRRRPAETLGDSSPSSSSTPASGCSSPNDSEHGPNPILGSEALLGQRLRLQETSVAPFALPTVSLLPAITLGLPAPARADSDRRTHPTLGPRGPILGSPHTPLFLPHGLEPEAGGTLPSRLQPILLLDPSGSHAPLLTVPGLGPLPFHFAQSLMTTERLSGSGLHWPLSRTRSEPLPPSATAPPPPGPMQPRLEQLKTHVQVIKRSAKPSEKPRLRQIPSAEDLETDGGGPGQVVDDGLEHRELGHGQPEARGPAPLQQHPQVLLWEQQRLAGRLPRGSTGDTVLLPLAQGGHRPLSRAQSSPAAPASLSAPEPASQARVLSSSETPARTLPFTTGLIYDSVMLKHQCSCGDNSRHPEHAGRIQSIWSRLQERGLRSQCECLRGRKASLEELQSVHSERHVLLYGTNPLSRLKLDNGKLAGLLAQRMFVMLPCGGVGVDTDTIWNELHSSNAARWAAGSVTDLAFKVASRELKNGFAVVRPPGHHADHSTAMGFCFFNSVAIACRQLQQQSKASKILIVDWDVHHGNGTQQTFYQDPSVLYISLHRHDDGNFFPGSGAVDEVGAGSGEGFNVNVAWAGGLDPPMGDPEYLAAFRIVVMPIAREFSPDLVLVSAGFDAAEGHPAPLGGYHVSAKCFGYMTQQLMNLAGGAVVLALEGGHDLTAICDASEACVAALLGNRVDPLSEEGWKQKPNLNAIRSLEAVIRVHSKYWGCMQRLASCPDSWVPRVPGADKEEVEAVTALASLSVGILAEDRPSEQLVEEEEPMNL

Histone deacetylase 2 [3] = target: T1, Histone deacetylase 2; assay: Inhibition of HDAC2 (unknown origin) assessed as residual activity at 4.57 x 10^-9M (reference value: 99.81%); settings: dose 4.57 10^-9M
[4] = target: Histone deacetylase 4 (Homo sapiens) (UniProt P56524); assay: Inhibition of HDAC4 (unknown origin) assessed as residual activity at 1.23 x 10^-7M (reference value: 98.90%); settings: dose 1.23 10^-7M
Histone deacetylase 4 (Homo sapiens), sequence (P56524 whole entry): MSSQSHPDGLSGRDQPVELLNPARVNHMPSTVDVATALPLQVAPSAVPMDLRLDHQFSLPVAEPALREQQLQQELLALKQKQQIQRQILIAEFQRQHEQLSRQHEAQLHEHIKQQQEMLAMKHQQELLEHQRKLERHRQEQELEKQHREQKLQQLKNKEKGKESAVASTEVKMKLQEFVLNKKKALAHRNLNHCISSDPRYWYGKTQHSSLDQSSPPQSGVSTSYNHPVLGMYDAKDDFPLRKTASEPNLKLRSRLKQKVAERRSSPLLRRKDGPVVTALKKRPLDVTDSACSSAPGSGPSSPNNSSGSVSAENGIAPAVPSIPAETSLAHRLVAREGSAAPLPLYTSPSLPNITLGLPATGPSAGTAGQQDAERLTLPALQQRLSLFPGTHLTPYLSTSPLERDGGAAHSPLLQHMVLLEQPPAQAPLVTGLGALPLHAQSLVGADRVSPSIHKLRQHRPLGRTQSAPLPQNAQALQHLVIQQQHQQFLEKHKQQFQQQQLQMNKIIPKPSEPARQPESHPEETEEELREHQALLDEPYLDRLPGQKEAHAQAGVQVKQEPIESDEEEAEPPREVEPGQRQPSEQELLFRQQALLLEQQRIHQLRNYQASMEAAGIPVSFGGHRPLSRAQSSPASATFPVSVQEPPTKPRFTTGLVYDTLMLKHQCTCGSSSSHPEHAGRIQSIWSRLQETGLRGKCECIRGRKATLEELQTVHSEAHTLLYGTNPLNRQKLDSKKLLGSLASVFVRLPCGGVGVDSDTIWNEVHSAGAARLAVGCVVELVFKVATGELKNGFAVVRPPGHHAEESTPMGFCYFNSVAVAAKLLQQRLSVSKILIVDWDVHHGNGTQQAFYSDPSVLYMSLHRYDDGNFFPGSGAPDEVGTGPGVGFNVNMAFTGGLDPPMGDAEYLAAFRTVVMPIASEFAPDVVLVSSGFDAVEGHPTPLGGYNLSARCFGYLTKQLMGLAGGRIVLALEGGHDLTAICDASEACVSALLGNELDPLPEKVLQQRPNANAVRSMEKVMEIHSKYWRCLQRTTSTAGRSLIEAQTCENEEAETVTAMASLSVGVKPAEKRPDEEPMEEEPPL

[5] = target: Histone deacetylase 4 (Homo sapiens) (UniProt P56524); assay: Inhibition of HDAC4 (unknown origin) assessed as residual activity at 4.57 x 10^-9M (reference value: 98.90%); settings: dose 4.57 10^-9M
[6] = target: Histone deacetylase 5 (Homo sapiens) (UniProt Q9UQL6); assay: Inhibition of HDAC5 (unknown origin) assessed as residual activity at 1.52 x 10^-9M (reference value: 100%); settings: dose 1.52 10^-9M
Histone deacetylase 5 (Homo sapiens), sequence (Q9UQL6 whole entry): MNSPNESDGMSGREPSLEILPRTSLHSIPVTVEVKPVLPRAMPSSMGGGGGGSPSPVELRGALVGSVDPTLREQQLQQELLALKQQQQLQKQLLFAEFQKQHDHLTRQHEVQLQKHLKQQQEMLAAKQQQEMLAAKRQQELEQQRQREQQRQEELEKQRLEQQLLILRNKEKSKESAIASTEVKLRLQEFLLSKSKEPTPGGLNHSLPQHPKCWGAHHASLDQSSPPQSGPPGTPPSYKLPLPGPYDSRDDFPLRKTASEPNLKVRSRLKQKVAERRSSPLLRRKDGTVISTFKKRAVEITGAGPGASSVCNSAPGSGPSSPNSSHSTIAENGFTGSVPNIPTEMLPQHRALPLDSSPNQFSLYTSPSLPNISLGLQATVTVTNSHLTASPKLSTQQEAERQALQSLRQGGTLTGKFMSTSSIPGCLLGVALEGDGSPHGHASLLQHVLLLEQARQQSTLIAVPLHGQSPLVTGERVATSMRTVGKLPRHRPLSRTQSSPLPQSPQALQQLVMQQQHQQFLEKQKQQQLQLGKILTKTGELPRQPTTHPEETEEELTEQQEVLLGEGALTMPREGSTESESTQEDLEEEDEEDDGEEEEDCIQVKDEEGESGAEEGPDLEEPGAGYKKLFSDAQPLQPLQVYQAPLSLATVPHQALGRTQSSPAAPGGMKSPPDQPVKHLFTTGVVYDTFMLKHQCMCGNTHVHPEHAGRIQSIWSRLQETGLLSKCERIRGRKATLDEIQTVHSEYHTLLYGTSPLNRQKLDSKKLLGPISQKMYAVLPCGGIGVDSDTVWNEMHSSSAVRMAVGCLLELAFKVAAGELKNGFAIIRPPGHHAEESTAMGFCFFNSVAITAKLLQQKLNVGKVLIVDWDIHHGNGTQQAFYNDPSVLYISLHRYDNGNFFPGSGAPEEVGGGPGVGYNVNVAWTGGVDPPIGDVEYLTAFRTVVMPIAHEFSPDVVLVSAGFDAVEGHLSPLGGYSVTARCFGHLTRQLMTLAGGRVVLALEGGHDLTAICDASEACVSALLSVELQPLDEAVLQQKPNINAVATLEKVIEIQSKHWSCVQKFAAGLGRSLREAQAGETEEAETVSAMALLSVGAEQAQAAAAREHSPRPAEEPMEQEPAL

[7] = target: T3, Histone deacetylase 8 (Homo sapiens) (UniProt Q9BY41); assay: Inhibition of HDAC8 (unknown origin) assessed as residual activity at 4.57 x 10^-9M (reference value: 100%); settings: dose 4.57 10^-9M
T3 sequence (whole entry): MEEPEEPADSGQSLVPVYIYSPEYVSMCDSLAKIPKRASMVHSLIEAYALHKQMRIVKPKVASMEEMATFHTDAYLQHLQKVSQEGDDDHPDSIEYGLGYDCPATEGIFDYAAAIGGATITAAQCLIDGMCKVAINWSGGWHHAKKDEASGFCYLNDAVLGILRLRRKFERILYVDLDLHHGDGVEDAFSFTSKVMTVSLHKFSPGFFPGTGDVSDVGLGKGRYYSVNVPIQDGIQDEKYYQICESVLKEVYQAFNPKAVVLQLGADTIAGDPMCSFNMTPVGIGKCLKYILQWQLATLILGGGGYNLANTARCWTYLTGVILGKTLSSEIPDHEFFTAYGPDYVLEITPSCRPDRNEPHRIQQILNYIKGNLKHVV

[8] = target: Histone deacetylase 9 (Homo sapiens) (UniProt Q9UKV0); assay: Inhibition of HDAC9 (unknown origin) assessed as residual activity at 1.23 x 10^-7M (reference value: 97.55%); settings: dose 1.23 10^-7M
Histone deacetylase 9 (Homo sapiens), sequence (Q9UKV0 whole entry): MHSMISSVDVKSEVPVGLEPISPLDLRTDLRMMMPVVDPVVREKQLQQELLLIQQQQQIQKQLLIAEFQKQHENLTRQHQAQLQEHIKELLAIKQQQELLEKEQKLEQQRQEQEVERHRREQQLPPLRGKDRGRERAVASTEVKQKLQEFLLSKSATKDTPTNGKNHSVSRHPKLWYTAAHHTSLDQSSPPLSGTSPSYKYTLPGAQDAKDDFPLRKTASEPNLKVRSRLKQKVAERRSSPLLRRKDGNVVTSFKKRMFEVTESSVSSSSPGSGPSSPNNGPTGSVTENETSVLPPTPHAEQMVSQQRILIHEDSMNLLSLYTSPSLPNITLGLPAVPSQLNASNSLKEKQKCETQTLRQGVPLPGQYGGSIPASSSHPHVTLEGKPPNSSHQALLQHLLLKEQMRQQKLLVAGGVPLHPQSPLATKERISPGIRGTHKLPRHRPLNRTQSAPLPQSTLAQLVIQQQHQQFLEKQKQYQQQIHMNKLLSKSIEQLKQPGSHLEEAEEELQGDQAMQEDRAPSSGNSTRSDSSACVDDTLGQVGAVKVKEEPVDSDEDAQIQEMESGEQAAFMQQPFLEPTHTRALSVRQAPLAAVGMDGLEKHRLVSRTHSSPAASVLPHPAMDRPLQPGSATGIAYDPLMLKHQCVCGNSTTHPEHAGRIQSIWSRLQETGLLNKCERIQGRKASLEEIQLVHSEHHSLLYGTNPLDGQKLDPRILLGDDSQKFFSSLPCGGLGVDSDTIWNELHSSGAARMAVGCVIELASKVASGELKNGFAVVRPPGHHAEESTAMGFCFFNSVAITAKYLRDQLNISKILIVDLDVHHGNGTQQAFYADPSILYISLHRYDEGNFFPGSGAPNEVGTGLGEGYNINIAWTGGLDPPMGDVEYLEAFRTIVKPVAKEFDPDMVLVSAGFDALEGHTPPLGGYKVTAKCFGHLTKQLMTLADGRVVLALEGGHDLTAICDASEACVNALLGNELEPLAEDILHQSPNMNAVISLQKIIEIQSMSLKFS

[9] = target: T4, Polyamine deacetylase HDAC10 (Homo sapiens) (UniProt Q969S8); assay: Inhibition of HDAC10 (unknown origin) assessed as residual activity at 1.1 x 10^-6M (reference value: 101.54%); settings: dose 1.1 10^-6M
T4 sequence (whole entry): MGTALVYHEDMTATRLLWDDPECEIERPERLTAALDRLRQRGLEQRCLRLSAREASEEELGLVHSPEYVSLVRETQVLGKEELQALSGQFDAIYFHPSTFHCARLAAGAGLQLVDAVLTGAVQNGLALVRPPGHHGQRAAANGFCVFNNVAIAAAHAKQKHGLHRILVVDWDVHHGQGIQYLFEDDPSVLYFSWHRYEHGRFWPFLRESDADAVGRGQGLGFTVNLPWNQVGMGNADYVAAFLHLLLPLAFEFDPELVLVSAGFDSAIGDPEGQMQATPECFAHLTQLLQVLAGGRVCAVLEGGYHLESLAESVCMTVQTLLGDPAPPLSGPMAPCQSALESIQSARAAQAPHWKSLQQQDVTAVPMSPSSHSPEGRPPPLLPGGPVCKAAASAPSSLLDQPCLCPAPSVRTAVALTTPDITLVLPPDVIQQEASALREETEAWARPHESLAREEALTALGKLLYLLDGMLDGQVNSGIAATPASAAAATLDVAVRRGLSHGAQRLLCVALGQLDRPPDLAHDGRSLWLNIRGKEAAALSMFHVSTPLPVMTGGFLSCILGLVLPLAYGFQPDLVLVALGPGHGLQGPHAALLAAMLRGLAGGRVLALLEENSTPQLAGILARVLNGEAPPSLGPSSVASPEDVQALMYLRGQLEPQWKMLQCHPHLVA

HL-60 [10] = assay: Induction of apoptosis in human HL-60 cells assessed as disintegration of mitochondrial nuclear condensation at 0.5 to 1 times IC50 by DAPI staining based microscopic analysis; type: functional, cell-based
HL-60 [11] = assay: cells; settings: Homo sapiens
Description: Antiproliferative activity against human HL-60 cells assessed as inhibition of cell growth by MTT assay

K562 = assay: cells; settings: Homo sapiens
Description: Antiproliferative activity against human K562 cells assessed as inhibition of cell growth by MTT assay

Compound: NC(=O)c1cccc2[nH]c(-c3ccc(NCc4ccc(C(=O)Nc5ccccc5N)cc4)cc3)nc12
- IC50 (A549): > 5 µM
- IC50 (MDA-MB-231): > 10 µM
- Activity (Histone deacetylase 2 [1]): 7.52%
- Activity (Histone deacetylase 3): 20.7%
- Activity [2]: 92%
- Activity (Histone deacetylase 2 [3]): 89.2%
- Activity [4]: 85%
- Activity [5]: 95.9%
- Activity [6]: 80.1%
- Activity [7]: 103%
- Activity [8]: 88.5%
- Activity [9]: 96.2%
- Activity (HL-60 [10]): inactive
- IC50 (HL-60 [11]): 0.69 µM
- IC50 (K562): 1.21 µM
